Measured values from US12655116B2, “Substituted isophthalic acid diamides” (Bayer Aktiengesellschaft, priority 2020, dated 2026).

Assays:
[1] = system: DIGSA; assay: Pre-emergence herbicidal action against DIGSA; format: in vivo, Digitaria sanguinalis; conditions: Digitaria sanguinalis, 504 h
Procedure, shortened: (§1)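 Sandy loam pots, seeds covered with soil, then surface-treated with WP or EC formulations at 600–800 l/ha water plus 0.2% wetting agent. Greenhouse, 3 weeks. Percent damage vs untreated controls.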

[2] = system: AVEFA; assay: Post-emergence herbicidal action against AVEFA; format: in vivo, Avena fatua; conditions: Avena fatua, 504 h, 20 g/ha, visual assessment about 3 weeks after treatment, 100% = plants have died, 0% = like control plants
Procedure, shortened: (§2)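 Herbicidal action is a visual percentage rating (0% = as untreated control, 100% = plants dead) made roughly 3 weeks after treatment. Plants were grown in sandy loam in the greenhouse and treated at the one-leaf stage, 2 to 3 weeks post-sowing. Treatment was a foliar spray of wettable-powder or emulsion-concentrate formulations at 600 to 800 l/ha water plus 0.2% wetting agent.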

[3] = system: DIGSA; assay: Post-emergence herbicidal action against DIGSA; format: in vivo, Digitaria sanguinalis; conditions: Digitaria sanguinalis, 504 h
Procedure, shortened: as §2

[4] = system: ECHCG; assay: Pre-emergence herbicidal action against ECHCG; format: in vivo, Echinochloa crus-galli; conditions: Echinochloa crus-galli, 504 h, 80 g/ha
Procedure, shortened: as §1

[5] = system: PHBPU; assay: Post-emergence herbicidal action against PHBPU; format: in vivo, Pharbitis purpurea; conditions: Ipomoea purpurea, 504 h, dosage 20 g/ha
Procedure, shortened: as §2

[6] = system: ALOMY; assay: Pre-emergence herbicidal action against ALOMY; format: in vivo, Alopecurus myosuroides; conditions: Alopecurus myosuroides, 504 h, pre-emergence
Procedure, shortened: as §1

[7] = system: HORMU; assay: Post-emergence herbicidal action against HORMU; format: in vivo, Hordeum murinum; conditions: Hordeum murinum, 504 h, dosage 20 g/ha
Procedure, shortened: as §2

[8] = system: HORMU; assay: Pre-emergence herbicidal action against HORMU; format: in vivo, Hordeum murinum; conditions: Hordeum murinum, 504 h; 80 g/ha, pre-emergence
Procedure, shortened: as §1

[9] = system: LOLRI; assay: Pre-emergence herbicidal action against LOLRI; format: in vivo, Lolium rigidum; conditions: Lolium rigidum, 504 h, 80 g/ha
Procedure, shortened: as §1

[10] = system: MATIN; assay: Post-emergence herbicidal action against MATIN; format: in vivo, Matricaria inodora; conditions: Tripleurospermum inodorum, 504 h
Procedure, shortened: as §2

[11] = system: POLCO; assay: Pre-emergence herbicidal action against POLCO; format: in vivo, Polygonum convolvulus; conditions: Fallopia convolvulus, 504 h, dosage 80 g/ha
Procedure, shortened: as §1

[12] = system: ECHCG; assay: Post-emergence herbicidal action against ECHCG; format: in vivo, Echinochloa crus-galli; conditions: Echinochloa crus-galli, 504 h, dosage 20 g/ha
Procedure, shortened: as §2

[13] = system: AMARE; assay: Pre-emergence herbicidal action against AMARE; format: in vivo, Amaranthus retroflexus; conditions: Amaranthus retroflexus, 504 h, scored visually after 3 weeks vs untreated controls, 100% = plants have died, 0% = like control plants
Procedure, shortened: as §1

[14] = system: VERPE; assay: Post-emergence herbicidal action against VERPE; format: in vivo, Veronica persica; conditions: Veronica persica, 504 h, 20 g/ha
Procedure, shortened: as §2

[15] = system: AMARE; assay: Post-emergence herbicidal action against AMARE; format: in vivo, Amaranthus retroflexus; conditions: Amaranthus retroflexus, 504 h, 20 g/ha, visual assessment about 3 weeks after treatment, 100% = plants have died, 0% = like control plants
Procedure, shortened: as §2

[16] = system: ABUTH; assay: Post-emergence herbicidal action against ABUTH; format: in vivo, Abutilon theophrasti; conditions: Abutilon theophrasti, 504 h, visual assessment about 3 weeks after treatment vs untreated controls
Procedure, shortened: as §2

[17] = system: AVEFA; assay: Pre-emergence herbicidal action against AVEFA; format: in vivo, Avena fatua; conditions: Avena fatua, 504 h, pre-emergence
Procedure, shortened: as §1

[18] = system: ABUTH; assay: Pre-emergence herbicidal action against ABUTH; format: in vivo, Abutilon theophrasti; conditions: Abutilon theophrasti, 504 h
Procedure, shortened: as §1

[19] = system: VIOTR; assay: Pre-emergence herbicidal action against VIOTR; format: in vivo, Viola tricolor; conditions: Viola tricolor, 504 h
Procedure, shortened: as §1

[20] = system: SETVI; assay: Pre-emergence herbicidal action against SETVI; format: in vivo, Setaria viridis; conditions: Setaria viridis, 504 h
Procedure, shortened: as §1

[21] = system: VIOTR; assay: Post-emergence herbicidal action against VIOTR; format: in vivo, Viola tricolor; conditions: Viola tricolor, 504 h
Procedure, shortened: as §2

[22] = system: STEME; assay: Post-emergence herbicidal action against STEME; format: in vivo, Stellaria media; conditions: Stellaria media, 504 h
Procedure, shortened: as §2

[23] = system: ALOMY; assay: Post-emergence herbicidal action against ALOMY; format: in vivo, Alopecurus myosuroides; conditions: Alopecurus myosuroides, 504 h, dosage 20 g/ha, visual assessment about 3 weeks after treatment vs untreated controls
Procedure, shortened: as §2

[24] = system: SETVI; assay: Post-emergence herbicidal action against SETVI; format: in vivo, Setaria viridis; conditions: Setaria viridis, 504 h, dosage 20 g/ha
Procedure, shortened: as §2

[25] = system: STEME; assay: Pre-emergence herbicidal action against STEME; format: in vivo, Stellaria media; conditions: Stellaria media, 504 h
Procedure, shortened: as §1

[26] = system: MATIN; assay: Pre-emergence herbicidal action against MATIN; format: in vivo, Matricaria inodora; conditions: Tripleurospermum inodorum, 504 h
Procedure, shortened: as §1

[27] = 80 g/ha, scored visually after 3 weeks vs untreated controls (100% = plants have died, 0% = like control plants)
[28] = 20 g/ha, scored visually after 3 weeks, 100% = plants have died, 0% = like control plants

Cn1nnnc1NC(=O)c1ccc(C(F)(F)F)c(C(=O)NC2CC2)c1Cl [Example 1-131]
80%: pest or weed control at 20 g/ha [2] | pest or weed control at 20 g/ha [6, 28] | pest or weed control at 20 g/ha [7] | pest or weed control at 80 g/ha [8] | pest or weed control at 80 g/ha [9] | pest or weed control at 80 g/ha [11] | pest or weed control at 20 g/ha [17, 28] | pest or weed control at 20 g/ha ([20]; dosage 20 g/ha) | pest or weed control at 5 g/ha ([22]; dosage 5 g/ha)
90%: pest or weed control at 20 g/ha [5] | pest or weed control at 5 g/ha ([10]; dosage 5 g/ha) | pest or weed control at 20 g/ha ([10]; dosage 20 g/ha) | pest or weed control at 20 g/ha [12] | pest or weed control at 20 g/ha [14] | pest or weed control at 5 g/ha ([16]; dosage 5 g/ha) | pest or weed control at 20 g/ha ([16]; dosage 20 g/ha) | pest or weed control at 20 g/ha [23]
100%: pest or weed control at 20 g/ha ([1]; dosage 20 g/ha) | pest or weed control at 80 g/ha ([1]; dosage 80 g/ha) | pest or weed control at 5 g/ha ([3]; 5 g/ha) | pest or weed control at 20 g/ha ([3]; 20 g/ha) | pest or weed control at 80 g/ha [4] | pest or weed control at 80 g/ha [6, 27] | pest or weed control at 20 g/ha ([13]; 20 g/ha) | pest or weed control at 80 g/ha ([13]; 80 g/ha) | pest or weed control at 20 g/ha [15] | pest or weed control at 80 g/ha ([17]; 80 g/ha) | pest or weed control at 80 g/ha [18, 27] | pest or weed control at 20 g/ha ([18]; dosage 20 g/ha, scored visually after 3 weeks vs untreated controls, 100% = plants have died, 0% = like control plants, read-out: Pre-emergence action against ABUTH (herbicidal activity in percent)) | pest or weed control at 20 g/ha ([19]; dosage 20 g/ha) | pest or weed control at 80 g/ha ([19]; dosage 80 g/ha) | pest or weed control at 80 g/ha ([20]; dosage 80 g/ha) | pest or weed control at 5 g/ha ([21]; 5 g/ha) | pest or weed control at 20 g/ha ([21]; 20 g/ha) | pest or weed control at 20 g/ha ([22]; 20 g/ha) | pest or weed control at 20 g/ha [24] | pest or weed control at 20 g/ha ([25]; dosage 20 g/ha) | pest or weed control at 80 g/ha ([25]; dosage 80 g/ha) | pest or weed control at 20 g/ha ([26]; dosage 20 g/ha) | pest or weed control at 80 g/ha ([26]; dosage 80 g/ha)
